Data published in patent US20080182882A1, “N-HYDROXYAMIDINOHETEROCYCLES AS MODULATORS OF INDOLEAMINE 2,3-DIOXYGENASE” (INCYTE CORPORATION, priority 2006, published 2008).

Experiments:
[1] = molecular target: T1, Human indoleamine 2,3-dioxygenasae (IDO) (Homo sapiens, UniProt P14902); assay: Human indoleamine 2,3-dioxygenase (IDO) enzyme assay; assay type: biochemical; conditions: 95 nM IDO, 2 mM D-Trp, pH 6.5, room temperature
T1 construct: His tag (N); made in house; host or cells: E. coli
Method: Human indoleamine 2,3-dioxygenasae (IDO) with an N-terminal His tag was expressed in E. coli and purified to homogeneity. IDO catalyzes the oxidative cleavage of the pyrrole ring of the indole nucleus of tryptophan to yield N′-formylkynurenine. The assays were performed at room temperature as described in the literature using 95 nM IDO and 2 mM D-Trp in the presence of 20 mM ascorbate, 5 μM methylene blue and 0.2 mg/mL catalase in 50 mM potassium phosphate buffer (pH 6.5). The initial reaction rates were recorded by continuously following the absorbance increase at 321 nm due to the formation of N′-formlylkynurenine. See: Sono, M., Taniguchi, T., Watanabe, Y., and Hayaishi, O. (1980) J. Biol. Chem. 255, 1339-1345 Compound activity is provided in Table 2 below.

[2] = system: LLC tumors; conditions: LLC tumors in C57B1/6 mice, versus placebo (Friberg, M., et al); cited from earlier work
[3] = system: P815 tumor; conditions: pre-immunized immune-competent mice, IDO-expressing tumors (Uyttenhove, C., et al); cited from earlier work
[4] = molecular target: T2, indoleamine 2,3-dioxygenase (IDO) in HeLa cells (Homo sapiens, UniProt P14902); assay: HeLa cell-based indoleamine 2,3-dioxygenase (IDO)/kynurenine assay; conditions: IFN-γ 50 ng/mL, 48 hours incubation, kynurenine at 480 nm
T2 construct: host or cells: HeLa cells, IFN-γ induced
T2 sequence (P14902 whole entry): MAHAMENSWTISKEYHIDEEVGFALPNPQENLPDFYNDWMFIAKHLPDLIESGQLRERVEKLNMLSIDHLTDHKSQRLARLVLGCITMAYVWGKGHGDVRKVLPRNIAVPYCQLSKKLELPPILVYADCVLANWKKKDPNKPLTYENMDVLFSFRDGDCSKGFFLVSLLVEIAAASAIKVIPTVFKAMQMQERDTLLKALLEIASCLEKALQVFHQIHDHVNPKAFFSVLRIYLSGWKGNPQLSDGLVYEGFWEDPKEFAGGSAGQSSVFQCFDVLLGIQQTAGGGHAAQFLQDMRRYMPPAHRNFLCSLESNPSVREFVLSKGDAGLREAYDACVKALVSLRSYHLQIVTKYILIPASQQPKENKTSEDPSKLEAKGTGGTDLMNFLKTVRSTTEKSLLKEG
Method: HeLa cells (#CCL-2) can be obtained from the American Type Tissue Culture Collection (ATCC, Manassas, Va.) and routinely maintained in minimum essential medium (eagle) with 2 mM L-glutamine and Earle's BSS adjusted to contain 1.5 g/L sodium bicarbonate, 0.1 mM non-essential amino acids, 1 mM sodium pyruvate and 10% fetal bovine serum (all from Invitrogen). Cells are kept at 37° C. in a humidified incubator supplied with 5% CO2. The assay is performed as follows: HeLa cells are seeded in a 96 well culture plate at a density of 5×10^3 per well and grown overnight. On the next day, IFN-γ (50 ng/mL final concentration) and serial dilutions of compounds (in total volume of 200 μL culture medium) are added into cells. After 48 hours of incubation, 140 μL of the supernatant per well is transferred to a new 96 well plate. 10 μL of 6.1 N trichloroacetic acid (#T0699, Sigma) is mixed into each well and incubated at 50° C. for 30 min to hydrolyze N-formylkynurenine produced by indoleamine 2,3-dioxygenase to kynurenine. […] The yellow color derived from Kynurenine is measured at 480 nm using a SPECTRAmax 250 microplate reader (Molecular Devices). […] The percent inhibition at individual concentrations is determined and the average values of duplicates are obtained. The data is analyzed by using nonlinear regression to generate IC50 values (Prism Graphpad). […]

T1 sequence (P14902 whole entry): as above

SMILES | IC50 [1] [nM] | IC50 [4] [nM] | formation of tumors [2] | growth of tumors [3]
OCc1nonc1C(=NO)NCc1cc(Cl)ccc1Cl [Example 2] | < 5000 | – | – | –
Cn1cc(C[C@H](N)C(=O)O)c2ccccc21 [Example 1-MT, 1-methyl-tryptophan] | – | – | markedly delayed | inhibited
Cc1ccc(C)c(CNC(=NO)c2nonc2CO)c1 [Example 4] | < 5000 | – | – | –

Continued, in another order:

IC50 [1] [nM] | IC50 [4] [nM] | SMILES | formation of tumors [2] | growth of tumors [3]
< 1000 | < 500 | OCc1nonc1C(=NO)NCc1cc(Br)ccc1F [Example 3] | – | –
< 1000 | < 500 | Cc1ccc(Cl)cc1CNC(=NO)c1nonc1CO [Example 1, N-(5-chloro-2-methylbenzyl)-N′-hydroxy-4-(hydroxymethyl)-1,2,5-oxadiazole-3-carboximidamide] | – | –
